{"source": "patent US20060281724A1", "about": "“Methods for Treating Shock” (priority 2005, published 2006)", "key": {"[1]": {"system": "rats hemorrhaged down to a mean arterial pressure of about 35-40 mmHg", "assay": "Rat model of blood pressure hemorrhagic trauma (pressure reduction model)", "type": "in vivo", "settings": "two days after induction of hemorrhage; AET 40 mg/kg subcutaneous in methyl cellulose suspension, one hour after initiation of hemorrhage, prior to fluid resuscitation; untreated/control group 75%", "experimental": "In a second model of hemorrhagic trauma, 15 rats were hemorrhaged as in Example 1 down to a mean arterial pressure of about 35-40 mmHg and resuscitated one hour from onset of hemorrhage with crystalloid and PRBCs. Seven […] subcutaneous injection of AET in a methyl cellulose suspension at a concentration of 40 mg/kg body weight in 100 μl/kg body weight, one hour after initiation of hemorrhage, but prior to fluid resuscitation. Eight animals received subcutaneous methyl cellulose control injection at 100 μl/kg body weight. Two days after induction of hemorrhage, mortality in the untreated group (n=8) was 75%."}, "[2]": {"system": "rats subjected to 40% loss of total blood volume", "assay": "Rat model of volume hemorrhagic trauma (blood loss model)", "type": "in vivo", "experimental": "Twenty-four rats were subjected to 40% loss of total blood volume, consisting of catheterization and laparotomy (soft tissue injury) to mimic trauma and hemorrhage. One hour after onset of hemorrhage, the animals were resuscitated with crystalloid fluid and packed red blood cells (PRBCs). Twelve animals received one subcutaneous injection of AET in a methyl cellulose suspension at a concentration of 40 mg/kg body weight in 100 μl/kg body weight, one hour after initiation of hemorrhage, but prior to fluid resuscitation. Twelve animals received subcutaneous methyl cellulose control injection at 100 μl/kg body weight."}}}
{"smiles": "C[C@]12CCC(O)CC1=CC(O)[C@@H]1[C@@H]2CC[C@]2(C)C(O)CC[C@@H]12", "note": "(stereo partly drawn) [AET, trihydroxy-androst-5ene]", "values": [{"measurement": "mortality rate", "setting": "[1]", "result": 43, "unit": "%"}, {"measurement": "mortality", "setting": "[2]; three days after hemorrhagic conditions that reduced total blood volume by 40%, FIG. 1", "result": "zero"}, {"measurement": "survival rate", "setting": "[2]; three days after induction of hemorrhage, AET 40 mg/kg subcutaneous in methyl cellulose suspension, one hour after initiation of hemorrhage, prior to fluid resuscitation, untreated group mortality 25%, P<0.04", "result": 100, "unit": "%"}]}
